What was measured:
[1] = set-up: species or system human; conditions: in vivo, 1.5 mg/kg
Description: In accordance with the present invention, the solid food to be checked and swallowed as the meal for a gastric emptying test is in the form of an edible, egg fortified muffin from a microwaveable recipe, freshly prepared prior to use. The base formulation consists of a bulk mix containing 92 grams of powdered, defatted milk; 320 grams of apple flavored instant muffin mix, 80 grams of finely grated Parmesan cheese and 0.6 gram of pulverized L-2-oxo[^13C]thiazolidine-4-carboxylic acid (OTZ) tracer probe. The mixture is homogenized in a food mill and stored in individual portions of 61.625 grams. Prior to cooking, the individual muffin mix is reconstituted in a microwaveable plastic dish with 110 ml of water and 61 grams of defatted egg substitute and then thoroughly blended and allowed to stand covered for 0.5 hour at room temperature. After shaking well, the mixture is uncovered and microwaved in a 500 watt oven for 4 minutes at medium power, rotated 120 degrees, and again microwaved for 4 minutes. The muffin is loosened around the edges, allowed to cool, and removed from the cooking container. […]
The samples are analyzed for isotopic content and corrected for interindividual differences in endogenous CO2 production rate in order to obtain the appropriate data points. […]

[2] = tested on: gastric emptying; assay: Breath test with liquid test meal given with drugs known to accelerate or delay gastric emptying (FIG. 6); assay type: in vivo, human; conditions: [acyl]^13C-leucine as emptying probe
Description: In FIG. 6 summarizing this experiment, metoclopramide is shown as a prokinetic agent. Similarly, loperamide is shown to delay emptying.

Compound	Absorption kinetics from appearance pattern of ^13CO2 in breath [1]	T1/2 (half-emptying time) [1]	Effect on gastric emptying [2]
O=C(O)[C@@H]1CS[13C](=O)N1 [2-[^13C -OTZ, L-2-oxo[^13C]thiazolidine-4-carboxylic acid]	zero-order absorption kinetics	19 +/− 4	
CCN(CC)CCNC(=O)c1cc(Cl)c(N)cc1OC [Metoclopramide, metoclopramide]			accelarated the gastric emptying profile in a statistically significant manner
CN(C)C(=O)C(CCN1CCC(O)(c2ccc(Cl)cc2)CC1)(c1ccccc1)c1ccccc1 [loperamide]			emptying times trending toward greater than normal half-emptying values
